Measured values as given in US11197857B2, “Combination therapy” (GlaxoSmithKline Intellectual Property Development Limited, priority 2016, dated 2021).

Experiments:
[1] = test system: Melanoma cell lines; assay: 6-day growth-death assay (Cell Titer Glo); assay type: cell-based, human
[2] = test system: human renal cell carcinoma xenografts (ACHN); assay: ACHN xenograft efficacy; assay type: in vivo, mouse
[3] = test system: Colon cancer cell lines; assay: 6-day growth-death assay (Cell Titer Glo); assay type: cell-based, human
[4] = test system: Toledo (human DLBCL) xenograft; assay: Toledo xenograft efficacy
[5] = test system: MV-4-11; assay: 6-day growth-death assay (Cell Titer Glo); assay type: cell-based, human; conditions: MV-4-11, subtype M5
Protocol: (§1) The growth of all cell lines was evaluated over time across a wide range of seeding densities to identify conditions that permitted proliferation throughout the entire 6-day assay. Cells were plated at the optimal seeding density and after overnight incubation, a 20-point 2-fold titration of compound was added and plates were incubated for 6 days. A replicate plate of cells was harvested at the time of compound addition to quantify the starting number of cells (T0). Values obtained after the 6 day treatment were expressed as a function of the T0 value and plotted against compound concentration. The T0 value was normalized to 100% and represents the number of cells at the time of compound addition. The data were fit with a 4 parameter equation to generate a concentration response curve and the growth IC50 (gIC50) was determined. The gIC50 is the midpoint of the ‘growth window’, the difference between the number of cells at the time of compound addition (To) and the number of cells after 6 days (DMSO control). The growth-death assay can be used to quantify the net population change, clearly defining cell death (cytotoxicity) as fewer cells compared to the number at the time of compound addition (To).

[6] = test system: MOLM-13; assay: 6-day growth-death assay (Cell Titer Glo); assay type: cell-based, human; conditions: MOLM-13, subtype M5
Protocol: as §1

[7] = test system: CAKI-2; assay: 6-day growth-death assay (Cell Titer Glo); assay type: cell-based, human; conditions: CAKI-2, ccRCC
Protocol: as §1

[8] = test system: TF-1; assay: 6-day growth-death assay (Cell Titer Glo); assay type: cell-based, human; conditions: TF-1, subtype M6
Protocol: as §1

[9] = test system: G-402; assay: 6-day growth-death assay (Cell Titer Glo); assay type: cell-based, human; conditions: G-402, Leiomyoblastoma
Protocol: as §1

[10] = test system: 786-O; assay: 6-day growth-death assay (Cell Titer Glo); assay type: cell-based, human; conditions: ccRCC
Protocol: as §1

[11] = test system: SHI-1; assay: 6-day growth-death assay (Cell Titer Glo); assay type: cell-based, human; conditions: SHI-1, subtype M5
Protocol: as §1

[12] = test system: HL-60; assay: 6-day growth-death assay (Cell Titer Glo); assay type: cell-based, human
Protocol: as §1

[13] = test system: MOLM-16; assay: 6-day growth-death assay (Cell Titer Glo); assay type: cell-based, human; conditions: MOLM-16, subtype M0
Protocol: as §1

[14] = test system: SK-NEP-1; assay: 6-day growth-death assay (Cell Titer Glo); assay type: cell-based, human; conditions: SK-NEP-1, Wilm's
Protocol: as §1

[15] = test system: CAKI-1; assay: 6-day growth-death assay (Cell Titer Glo); assay type: cell-based, human; conditions: CAKI-1, ccRCC
Protocol: as §1

[16] = test system: NOMO-1; assay: 6-day growth-death assay (Cell Titer Glo); assay type: cell-based, human; conditions: NOMO-1, subtype M5
Protocol: as §1

[17] = test system: G-401; assay: 6-day growth-death assay (Cell Titer Glo); assay type: cell-based, human; conditions: G-401, Wilm's
Protocol: as §1

[18] = test system: OCI-AML3; assay: 6-day growth-death assay (Cell Titer Glo); assay type: cell-based, human
Protocol: as §1

[19] = test system: A498; assay: 6-day growth-death assay (Cell Titer Glo); assay type: cell-based, human; conditions: A498, ccRCC
Protocol: as §1

[20] = test system: 769-P; assay: 6-day growth-death assay (Cell Titer Glo); assay type: cell-based, human; conditions: ccRCC
Protocol: as §1

[21] = test system: SKM-1; assay: 6-day growth-death assay (Cell Titer Glo); assay type: cell-based, human; conditions: SKM-1, subtype M5
Protocol: as §1

[22] = test system: KASUMI-1; assay: 6-day growth-death assay (Cell Titer Glo); assay type: cell-based, human
Protocol: as §1

[23] = test system: ACHN; assay: 6-day growth-death assay (Cell Titer Glo); assay type: cell-based, human
Protocol: as §1

[24] = test system: SW156; assay: 6-day growth-death assay (Cell Titer Glo); assay type: cell-based, human; conditions: SW156, ccRCC
Protocol: as §1

[25] = test system: Breast cancer cell lines; assay: 6-day growth-death assay (Cell Titer Glo); assay type: cell-based, human; conditions: 29 cell lines
[26] = test system: Toledo cells
From the text: FIG. 18: Propidium iodide FACS analysis of cell cycle in human lymphoma cell lines. […] Data represents the average±SEM of biological replicates, n=2.

Question: What does the source list for CCOCC1(COCC)CCC(c2n[nH]cc2CN(C)CCNC)CC1 [Compound A]?
Answer: % Cytotoxic (cell lines with negative Ymin-T0) ([1]; Melanoma, 7 cell lines): 0%; % gIC100 < 2 μM (share of cell lines) ([1]; Melanoma, 7 cell lines): 0%; Median gIC100 ([1]; Melanoma, 7 cell lines): 29.33 µM; nature of effect ([1]; all melanoma lines): cytostatic; Regression ([2]; 300 mg/kg QD oral, day 59): (2%); Body weight Difference (vs. vehicle) ([2]; 300 mg/kg QD, day 59): −4%; Regression ([2]; 450 mg/kg QD oral, day 59): (15%); Body weight Difference (vs. vehicle) ([2]; 450 mg/kg QD, day 59): −7%; Regression ([2]; 600 mg/kg QD oral, arm terminated at day 31): (6%); Body weight Difference (vs. vehicle) ([2]; 600 mg/kg QD, arm terminated at day 31): −17%; body weight loss ([2]; 600 mg/kg daily): Significant body weight loss; Body weight Difference (vs. vehicle) ([2]; […] mg/kg QD, day 59): −3%; doses at which regressions were observed ([2]; oral, daily, up to 59 days): ≥ 300 mg/kg; % Cytotoxic (cell lines with negative Ymin-T0) ([3]; Colon, 34 cell lines): 3%; % gIC100 < 2 μM (share of cell lines) ([3]; Colon, 34 cell lines): 0%; Median gIC100 ([3]; Colon, 34 cell lines): 29.33 µM; IC50 ([3]; Homo sapiens, read-out: Median gIC50): 5510 nM; Body weight Difference (vs. vehicle) ([4]; 300 mg/kg QD oral, day 28): −3%; Regression ([4]; 300 mg/kg QD oral, day 28): (37%); Body weight Difference (vs. vehicle) ([4]; 450 mg/kg QD oral, day 28): −8%; Regression ([4]; 450 mg/kg QD oral, day 28): (58%); Body weight Difference (vs. vehicle) ([4]; 600 mg/kg QD oral, day 28): −7%; Regression ([4]; 600 mg/kg QD oral, day 28): (62%); Body weight Difference (vs. vehicle) ([4]; […] mg/kg QD oral, day 28): −4%; body weight loss ([4]; any dose group, 150-600 mg/kg daily, 28 days): no significant body weight loss; doses at which regressions were observed ([4]; oral, daily, 28 days): ≥ 300 mg/kg; Body weight Difference (vs. vehicle) ([4]; second study, 37.5 mg/kg QD, day 25): −5%; Body weight Difference (vs. vehicle) ([4]; second study, 75 mg/kg BID, day 25): −4%; Body weight Difference (vs. vehicle) ([4]; second study, 75 mg/kg QD, day 25): −5%; Body weight Difference (vs. vehicle) ([4]; second study, 150 mg/kg QD, day 25): −7%; Ymin-T0 [5]: 565.6; gIC100 [5]: 14.55 ± 4.27 µM; Ymin-T0 [6]: −100.0; gIC100 [6]: 8.64 ± 0.39 µM; Ymin-T0 [7]: 169.6; Ymin-T0 [8]: 788.1; gIC100 [8]: 29.33 ± 0.00 µM; Ymin-T0 [9]: 92.6; Ymin-T0 [10]: 643.7; Ymin-T0 [11]: 292.0; gIC100 [11]: 29.33 ± 0.02 µM; Ymin-T0 ([12]; HL-60, subtype M3): −33.4; gIC100 ([12]; HL-60, subtype M3): 6.38 ± 12.83 µM; IC50 ([12]; Homo sapiens, HL-60, read-out: gIC50): 20 ± 10 nM; Ymin-T0 [13]: −68.6; gIC100 [13]: 9.69 ± 10.58 µM; Ymin-T0 [14]: 25.3; Ymin-T0 [15]: 178.7; Ymin-T0 [16]: 259.1; gIC100 [16]: 29.33 ± 0.00 µM; Ymin-T0 [17]: 353.7; IC50 ([18]; Homo sapiens, OCI-AML-3, read-out: gIC50): 870 ± 140 nM; Ymin-T0 ([18]; OCI-AML3, subtype M4): 523.2; gIC100 ([18]; OCI-AML3, subtype M4): 29.33 ± 0.00 µM; Ymin-T0 [19]: 313.4; Ymin-T0 [20]: 119.0; Ymin-T0 [21]: −19.1; gIC100 [21]: 11.61 ± 5.52 µM; IC50 ([22]; Homo sapiens, Kasumi 1, read-out: gIC50): 360 ± 250 nM; Ymin-T0 ([22]; KASUMI-1, subtype M2): −17.7; gIC100 ([22]; KASUMI-1, subtype M2): 18.88 ± 10.55 µM; IC50 ([23]; Homo sapiens, read-out: gIC50): 100 ± 50 nM; Ymin-T0 ([23]; ccRCC): 96.5; Ymin-T0 [24]: 346.7; % Cytotoxic (cell lines with negative Ymin-T0) [25]: 10%; % gIC100 < 2 μM (share of cell lines) [25]: 0%; Median gIC100 [25]: 29.36 µM; concentrations giving accumulation of cells in sub-G1 ([26]; beginning after 3 days of treatment): 1000 nM; concentrations giving increase in sub-G1 population ([26]; by day 7): 100 nM
